The results in this text go back to patent US5464834A, “N-substituted N'-heterobicyclic piperazines having pharmaceutical activity” (Adir et Compagnie, priority 1992, dated 1995).

In test [1] the target is T1, 5HT1A receptors (Rattus norvegicus, UniProt P19327).
T1 sequence (P19327 1-422): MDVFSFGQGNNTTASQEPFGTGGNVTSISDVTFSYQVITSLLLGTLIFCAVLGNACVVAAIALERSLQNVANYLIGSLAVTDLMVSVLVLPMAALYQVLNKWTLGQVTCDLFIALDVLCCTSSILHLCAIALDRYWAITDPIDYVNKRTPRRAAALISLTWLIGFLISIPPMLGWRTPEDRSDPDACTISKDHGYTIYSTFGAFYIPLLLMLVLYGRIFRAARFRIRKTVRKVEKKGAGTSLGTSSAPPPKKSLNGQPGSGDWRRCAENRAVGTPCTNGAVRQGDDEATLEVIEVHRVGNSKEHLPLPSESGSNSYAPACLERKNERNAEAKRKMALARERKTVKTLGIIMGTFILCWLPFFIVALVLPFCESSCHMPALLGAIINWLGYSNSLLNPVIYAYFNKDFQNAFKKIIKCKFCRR
The test can be described thus: In vitro binding test, 5HT1A receptors ([3H]-8-OH-DPAT, hippocampus membranes). Set-up: The hippocampus of the brains of decapitated rats was immediately frozen; from tissue; host or cells: hippocampus membranes of male Wistar rats; species or system rat (male Wistar). As to conditions: rat hippocampus; [3H]-8-OH-DPAT 0.4 nM; 30 min at 25° C; read-out: AFFINITY (pKi) (converted). As to the method:
(§1) The tests were carried out using male Wistar rats weighing 200 to 220 g having free access to their food and to their drinking water in standard cages.
The hippocampus of the brains of decapitated rats was immediately frozen on solid carbon dioxide and then kept at -80° C. until preparation of the membranes. The tissue was homogenised at 4° C. in the appropriate buffer using a Polytron (Brinkman Instruments, Lucerne, Switzerland) and centrifuged at 20,000 revs/min.
Incubation was carried out for 30 minutes at 25° C. Non-specific binding was established by […] of 5HT. The tests were terminated by rapid filtration using a Brandel harvester through glass fibre filters pretreated with 0.1% polyethylene imine.
The IC50 values were determined in accordance with process 8 of Tallarida R. J. and Murray R. B., Manual of Pharmacological calculations with computer programs, Springer Verlag, New York, (1987).
The pKi was calculated in accordance with the following formula: [formula] wherein [L] is the concentration of the hot ligand (^[3] H-8-OH-DPAT, 0.4 nM) and Kd is the apparent dissociation constant determined from the saturation experiments.
The substances studied were dissolved in the incubation buffer.
Binding of 5HT1A receptors

The target of test [2] is T1, 5HT1A receptors. The test can be described thus: Corticosterone secretion (CS), agonist (alone) and antagonist (vs 8-OH-DPAT). Set-up: from tissue; host or cells: whole living male Wistar rats (endogenous receptor). Format: in vivo, rat (male Wistar). How it is done: as §1
The animals are isolated individually for the tests for hypothermia, corticosterone secretion and flat body posture, or combined in groups of three for the tailflick test.
The compounds to be studied were administered by the subcutaneous route (s.c.) 60 minutes before the beginning of the test, that is to say 30 minutes before the solvent (agonist responses) or the 8-OH-DPAT (antagonist responses).
In all of the tests the solvent is used in parallel as a control. The animals were left to rest in their cage during the period between the injections and the evaluation. For the agonist studies, the solvent was administered at 1 ml/kg s.c. 30 minutes before the beginning of the test. For the antagonist studies, doses of 8-OH-DPAT that induce sub-maximal responses were chosen, that is doses of 0.63, 0.16, 0.16 and 0.16 mg/kg s.c. for, respectively, the tail flick test, flat body posture test, corticosterone secretion test and hypothermia test.
The same animals were used to evaluate the influence of the compounds studied on FBP and on the determination of the plasma concentration of CS. All of the tests were carried out in the morning between 10.30 and 12.300 that is to say when the circadian levels of CS are lowest.
The presence of FBP is defined by a characteristic posture of the animal. That posture is in the ventral decubitus position with the posterior limbs clearly extended. 5 minutes after the observation of FBP, the animals are decapitated and the blood from the trunk is collected in cooled tubes containing 50 μl of a 10% EDTA solution. After centrifugation at 4000 revs/min, the plasma is removed and stored at -30° C. until determination.
The CS was determined by a radio-competitive determination for a plasma protein that binds the CS: transcortine. The latter is obtained from a monkey serum. The separation of the CS-transcortine complexes from the free CS was carried out by means of a solution of dextran and active carbon. The detection limit was 50 pg/tube. The intra- and inter-experiment variations in determination were 5 and 15% respectively [cf Rivet J. M. et al, Eur. J. Pharmacol., 183,634-635 (1990)].
The CS base rates in the plasma never being zero, the following formula was used to calculated the percentage inhibition of plasma CS induced by 8-OH-DPAT: [formula]
In general, after variance analysis, the results are subjected to the Dunett test. The results are taken as significant if p <0.05.
The doses of the compounds tested are all expressed in base terms. Unless specified otherwise, all of the compounds were dissolved in sterile water (to which if necessary a few drops of lactic acid were added) and administered at a volume of 1 ml/kg s.c.

On to `c1cc2c(c(N3CCN(CCCc4ccsc4)CC3)c1)OCCO2` [Example 1, 4-(Benzodioxan-5-yl)-1-[3-(thiophen-3-yl)propyl]piperazine], for which the Ki on 5HT1A receptors [1] was 1.74 nM. Further, on 5HT1A receptors [2] (agonist test, compound alone s.c., minimum effective dose vs control), the “CS secretion MED alone” value came to 10.0 mg/kg. Also, on 5HT1A receptors [2] (rat, sc, antagonist test, s.c., vs 8-OH-DPAT 0.16 mg/kg s.c., read-out: CS secretion ID50 (95% CL) + DPAT), the ED50 was 0.43 mg/kg. For the same molecule, the “% MPA (% maximum possible antagonism), CS secretion” value on 5HT1A receptors [2] (vs 8-OH-DPAT 0.16 mg/kg s.c.) was 100%.
